Measurements from patent US8722731B2, “Furanyl compounds and the use thereof” (NovoMedix, LLC, priority 2010, dated 2014).
Like-named read-outs stand apart in the source and are kept apart here.

How the values were obtained:
SKBR-3 = test: IC50 cell-based assay, adherent cells, SKBR-3; conditions: Homo sapiens, SK-BR-3, Breast, ER−, 72 hours, read-out: IC50 of Compounds in Adherent Cell Types
Procedure: (§1) In one embodiment, the IC50s of the compounds provided herein were determined in cell-based assays using adherent cells. In one embodiment, the activity of the compounds provided herein were determined in a cell-based assay using the triple negative breast cancer cell line MDA-MB-468. In one embodiment, the adherent cells used in the cell-based assays may be a cell type selected from Table 1. In one embodiment, the cell-based assay may be carried out as provided herein. On day 0, cells were seeded at 20,000 cells per well in 100 µL of media into individual wells of a 96-well tissue culture plate. The next day, compounds were diluted to twice the desired final concentration and added in 100 µL of media for a final volume of 200 μL. Standard solutions for each compound were prepared at 1000× concentration in DMSO. The highest concentration was 30 mM. Serial 1:1 dilutions were made from there for a 6- or 9-point curve (e.g., 30 mM, 15 mM, 7.5 mM, etc). Compounds were then diluted 1:500 in media, and 100 µL of the resulting solution was added to each well for a final dilution of 1:1000. Each concentration of compound was tested in triplicate. Cells were incubated at 37° C. with 5% CO2. After 72 hours, 20 μL of CellTiter 96 Aqueous One Solution Cell Proliferation Assay (Promega) was added to each well. Cells were placed back in the incubator, and the absorbance at 490 nm was read after 2-3 hours. The concentration of compound that decreased the number of metabolically active cells by 50% was determined and reported as the IC50. “Percent Viability” was determined by subtracting the average background value (media only) and expressed as a ratio to the average value obtained from cells treated with only DMSO.

Kg1a = test: IC50 cell-based assay, suspension cells, Kg1a; conditions: Homo sapiens, KG-1a, Leukemia, AML, read-out: IC50 of Compounds in Suspension Cell Types
Procedure: as §1
(§2) In one embodiment, the IC50s of the compounds provided herein were determined in cell-based assays using suspension cells. In one embodiment, the activity of the compounds provided herein were determined in a cell-based assay using the JeKo-1 cell line (mantle cell lymphoma) or the Pfeiffer cell line (diffuse large B-cell lymphoma). In one embodiment, the suspension cells used in the cell-based assays may be a cell type selected from Table 2. Assays with suspension cells were similar except that 40,000-60,000 cells were added to each well and compounds were added immediately after cell plating.

Nalm-6-VR = test: IC50 cell-based assay, suspension cells, Nalm-6-VR; conditions: Leukemia, B-ALL, Vincristine resistant, read-out: IC50 of Compounds in Suspension Cell Types
Procedure: as §1, §2

HL-60 = test: IC50 cell-based assay, suspension cells, HL-60; conditions: Homo sapiens, Leukemia, AML, read-out: IC50 of Compounds in Suspension Cell Types
Procedure: as §1, §2

[1] = system: triple negative breast cancer cell line MDA-MB-468; test: IC50 cell-based assay, adherent cells, MDA-MB-468; conditions: Homo sapiens
Procedure: as §1
The IC50s of the compounds provided herein were determined in cell-based assay using triple negative breast cancer cell line MDA-MB-468.

SK-MEL-28 = test: IC50 cell-based assay, adherent cells, SK-MEL-28; conditions: Homo sapiens, Melanoma, 72 hours, read-out: IC50 of Compounds in Adherent Cell Types
Procedure: as §1

MHH-CALL-4 = test: IC50 cell-based assay, suspension cells, MHH-CALL-4; conditions: MHHCALL4, Leukemia, B-ALL (CRLF2 Hi), read-out: IC50 of Compounds in Suspension Cell Types
Procedure: as §1, §2

A431 = test: IC50 cell-based assay, adherent cells, A431; conditions: Homo sapiens, A-431, Skin, epidermoid carcinoma, 72 hours, read-out: IC50 of Compounds in Adherent Cell Types
Procedure: as §1

Hep-G2 = test: IC50 cell-based assay, adherent cells, Hep-G2; conditions: Homo sapiens, HepG2, Liver, hepatocellular carcinoma, 72 hours, read-out: IC50 of Compounds in Adherent Cell Types
Procedure: as §1

H-460 = test: IC50 cell-based assay, adherent cells, H-460; conditions: Homo sapiens, NCI-H460, Lung, large cell carcinoma, 72 hours, read-out: IC50 of Compounds in Adherent Cell Types
Procedure: as §1

A549 = test: IC50 cell-based assay, adherent cells, A549; conditions: Homo sapiens, Lung, NSCLC, 72 hours, read-out: IC50 of Compounds in Adherent Cell Types
Procedure: as §1

[2] = MDA-MB-468, Breast, triple neg, 72 hours, Table 1, read-out: IC50 of Compounds in Adherent Cell Types
[3] = MDA-MB-468 cells, Table 3, read-out: IC50 of Compounds in MDA-MB-468 Cells

IC50 (SKBR-3) [µM]	IC50 (Kg1a) [µM]	IC50 (Nalm-6-VR) [µM]	IC50 (HL-60) [µM]	IC50 [1, 2] [µM]	IC50 [1, 3] [µM]	IC50 (SK-MEL-28) [µM]	IC50 (MHH-CALL-4) [µM]	IC50 (A431) [µM]	IC50 (Hep-G2) [µM]	IC50 (H-460) [µM]	IC50 (A549) [µM]	Structure (SMILES)
< 5	< 5	< 5	< 5	< 5	1.5	< 5	5 to 10	< 5	5 to 10	10 to 20	< 5	O=C(Nc1cc(C(F)(F)F)cc(C(F)(F)F)c1)c1cc(-c2ccccc2)oc1C(F)(F)F [Compound 1, 5-Phenyl-2-trifluoromethyl-furan-3-carboxylic acid (3,5-bis-trifluoromethyl-phenyl)-amide]
< 5	< 5	< 5	< 5	< 5	1.5	5 to 10	< 5	< 5	5 to 10	> 20	5 to 10	O=C(Nc1cc(C(F)(F)F)cc(C(F)(F)F)c1)c1cc(-c2ccc(Cl)cc2)oc1C(F)(F)F [Compound 2, 5-(4-Chlorophenyl)-N-(3,5-bistrifluoromethylphenyl)-2-trifluoromethylfuran-3-carboxamide]
